Experimental data published in patent US6355799B1, “Substituted benzene compounds, process for their preparation, and herbicidal and defoliant compositions containing them” (ISK Americas Incorporated, priority 1997, dated 2002).

Columns and labels:
Format in all cases: in vivo
[1] = test system: field corn (Zea mays L., var. Dekalb 535, CORN); experiment: Pre-emerge test, crop safety; settings: rating scale 0-100, 14 days after application
Procedure, shortened: (§1)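 Plants grown in 10 cm pots of sandy loam mix received acetone-dissolved compounds through a moving flat-fan nozzle. Doses ranged from 15 to 1000 g ai/ha. Pre-emerge pots were seeded one day earlier, post-emerge pots 8–21 days earlier. Fourteen days on, each pot was graded 0–100 for damage.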

[2] = test system: upland rice (Oryza sp., var. Tebonnet, RICE); experiment: Pre-emerge test, crop safety; settings: rating scale 0-100, 14 days after application
Procedure, shortened: as §1

[3] = test system: barnyardgrass (Echinochloa crus-galli, ECHCG); experiment: Post-emerge test, greenhouse herbicide activity screening; settings: for Post-emerge Herbicidal Activity ECHCG: phytotoxicity rating 0-100 at 14 days after application; for Post-emerge Herbicidal Activity, phytotoxicity rating ECHCG: rating scale 0-100 (0 no damage, 100 complete death), 14 days after application
Procedure, shortened: (§2)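 Compounds in acetone were track-sprayed at 15–1000 g ai/ha: pre-emergence onto soil sown the previous day, then top-watered to incorporate and later bottom-watered; post-emergence onto 2–3 leaf plants with 0.25% v/v surfactant, bottom-watered only. Ratings on a 0–100 phytotoxicity scale were taken at day 14.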

[4] = test system: ivyleaf morningglory (Ipomoea hederacea, IPOHE); experiment: as above; settings: for Post-emerge Herbicidal Activity IPOHE: phytotoxicity rating 0-100 at 14 days after application; for Post-emerge Herbicidal Activity, phytotoxicity rating IPOHE: rating scale 0-100 (0 no damage, 100 complete death), 14 days after application
Procedure, shortened: as §2

[5] = test system: sicklepod (Cassia obtusifolia, CASOB); experiment: as above; settings: for Post-emerge Herbicidal Activity CASOB: phytotoxicity rating 0-100 at 14 days after application; for Post-emerge Herbicidal Activity, phytotoxicity rating CASOB: rating scale 0-100 (0 no damage, 100 complete death), 14 days after application
Procedure, shortened: as §2

[6] = test system: large crabgrass (Digitaria sanguinalis, DIGSA); experiment: as above; settings: for Post-emerge Herbicidal Activity DIGSA: phytotoxicity rating 0-100 at 14 days after application; for Post-emerge Herbicidal Activity, phytotoxicity rating DIGSA: rating scale 0-100 (0 no damage, 100 complete death), 14 days after application
Procedure, shortened: as §2

[7] = test system: velvetleaf (Abutilon theophrasti, ABUTH); experiment: as above; settings: for Post-emerge Herbicidal Activity ABUTH: phytotoxicity rating 0-100 at 14 days after application; for Post-emerge Herbicidal Activity, phytotoxicity rating ABUTH: rating scale 0-100 (0 no damage, 100 complete death), 14 days after application
Procedure, shortened: as §2

[8] = test system: johnsongrass (Sorghum halepense, SORHA); experiment: as above; settings: for Post-emerge Herbicidal Activity SORHA: phytotoxicity rating 0-100 at 14 days after application; for Post-emerge Herbicidal Activity, phytotoxicity rating SORHA: rating scale 0-100 (0 no damage, 100 complete death), 14 days after application
Procedure, shortened: as §2

[9] = test system: lambsquarters (Chenopodium album, CHEAL); experiment: as above; settings: for Post-emerge Herbicidal Activity CHEAL: phytotoxicity rating 0-100 at 14 days after application; for Post-emerge Herbicidal Activity, phytotoxicity rating CHEAL: rating scale 0-100 (0 no damage, 100 complete death), 14 days after application
Procedure, shortened: as §2

[10] = test system: redroot pigweed (Amaranthus retroflexus, AMARE); experiment: as above; settings: for Post-emerge Herbicidal Activity AMARE: phytotoxicity rating 0-100 at 14 days after application; for Post-emerge Herbicidal Activity, phytotoxicity rating AMARE: rating scale 0-100 (0 no damage, 100 complete death), 14 days after application
Procedure, shortened: as §2

[11] = test system: green foxtail (Setaria viridis, SETVI); experiment: as above; settings: for Post-emerge Herbicidal Activity SETVI: phytotoxicity rating 0-100 at 14 days after application; for Post-emerge Herbicidal Activity, phytotoxicity rating SETVI: rating scale 0-100 (0 no damage, 100 complete death), 14 days after application
Procedure, shortened: as §2

[12] = test system: redroot pigweed (Amaranthus retroflexus, AMARE); experiment: Pre-emerge test, greenhouse herbicide activity screening; settings: rating scale 0-100, 14 days after application
Procedure, shortened: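 Sandy loam pots; pre-emerge: sown 1 d pre-spray, surface-watered after, then bottom-watered. Post-emerge: sown 8–21 d before, 2–3 leaf stage, + 0.25% v/v NIS, bottom-watered. Acetone, 187 l/ha track spray, 15–1000 g ai/ha. 0–100 injury score, day 14.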

[13] = test system: field corn (Zea mays L., var. Dekalb 535, CORN); experiment: Post-emerge test, crop safety; settings: for Post-emerge Herbicidal Activity CORN: crop damage rating 0-100 at 14 days after application; for Post-emerge phytotoxicity rating CORN (crop damage): rating scale 0-100 (0 no damage, 100 complete death), 14 days after application
Procedure, shortened: (§3)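 Compounds in acetone were track-sprayed at 187 l/ha, 15–1000 g ai/ha, onto sandy loam pots. Pre-emerge seeds were sown one day before spraying, with surface watering afterwards. Post-emerge plants were at the 2–3 leaf stage and sprayed with 0.25% v/v non-ionic surfactant. Injury was rated 0–100 at 14 days.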

[14] = test system: upland rice (Oryza sp., var. Tebonnet, RICE); experiment: Post-emerge test, crop safety; settings: for Post-emerge Herbicidal Activity RICE: crop damage rating 0-100 at 14 days after application; for Post-emerge phytotoxicity rating RICE (crop damage): rating scale 0-100 (0 no damage, 100 complete death), 14 days after application
Procedure, shortened: as §3

[15] = test system: barnyardgrass (Echinochloa crus-galli, ECHCG); experiment: Pre-emerge test, greenhouse herbicide activity screening; settings: rating scale 0-100, 14 days after application
Procedure, shortened: as §3

[16] = test system: ivyleaf morningglory (Ipomoea hederacea, IPOHE); experiment: as above; settings: rating scale 0-100, 14 days after application
Procedure, shortened: as §3

[17] = test system: sicklepod (Cassia obtusifolia, CASOB); experiment: as above; settings: rating scale 0-100, 14 days after application
Procedure, shortened: as §3

[18] = test system: large crabgrass (Digitaria sanguinalis, DIGSA); experiment: as above; settings: rating scale 0-100, 14 days after application
Procedure, shortened: as §3

[19] = test system: velvetleaf (Abutilon theophrasti, ABUTH); experiment: as above; settings: rating scale 0-100, 14 days after application
Procedure, shortened: as §3

[20] = test system: johnsongrass (Sorghum halepense, SORHA); experiment: as above; settings: rating scale 0-100, 14 days after application
Procedure, shortened: as §3

[21] = test system: lambsquarters (Chenopodium album, CHEAL); experiment: as above; settings: rating scale 0-100, 14 days after application
Procedure, shortened: as §3

[22] = test system: green foxtail (Setaria viridis, SETVI); experiment: as above; settings: rating scale 0-100, 14 days after application
Procedure, shortened: as §3

O=C(Nc1cc(Cl)ccc1N1C(=O)C2CCCCN2C1=O)c1ccc2ccccc2c1 (stereo not shown) [12-8]
60: Pre-emerge herbicidal activity, phytotoxicity rating SETVI ([22]; 63 g ai/ha)
5: Post-emerge Herbicidal Activity CORN ([13]; 63 g ai/ha)
90: Post-emerge Herbicidal Activity IPOHE ([4]; 63 g ai/ha) | Post-emerge Herbicidal Activity AMARE ([10]; 250 g ai/ha)
30: Pre-emerge phytotoxicity rating, crop damage RICE ([2]; 63 g ai/ha)
70: Post-emerge Herbicidal Activity CASOB ([5]; 250 g ai/ha)
99: Post-emerge Herbicidal Activity CHEAL ([9]; 250 g ai/ha)
25: Post-emerge Herbicidal Activity SETVI ([11]; 250 g ai/ha)
10: Post-emerge Herbicidal Activity ECHCG ([3]; 63 g ai/ha) | Post-emerge Herbicidal Activity ECHCG ([3]; 250 g ai/ha) | Post-emerge Herbicidal Activity DIGSA ([6]; 63 g ai/ha) | Post-emerge Herbicidal Activity SORHA ([8]; 250 g ai/ha) | Post-emerge Herbicidal Activity CORN ([13]; 250 g ai/ha) | Pre-emerge herbicidal activity, phytotoxicity rating SORHA ([20]; 63 g ai/ha)
80: Post-emerge Herbicidal Activity IPOHE ([4]; 250 g ai/ha) | Post-emerge Herbicidal Activity AMARE ([10]; 63 g ai/ha)
95: Post-emerge Herbicidal Activity CHEAL ([9]; 63 g ai/ha)
20: Post-emerge Herbicidal Activity SETVI ([11]; 63 g ai/ha) | Post-emerge Herbicidal Activity RICE ([14]; 63 g ai/ha) | Pre-emerge herbicidal activity, phytotoxicity rating CASOB ([17]; 250 g ai/ha)
40: Pre-emerge phytotoxicity rating, crop damage RICE ([2]; 250 g ai/ha) | Pre-emerge herbicidal activity, phytotoxicity rating ECHCG ([15]; 250 g ai/ha) | Pre-emerge herbicidal activity, phytotoxicity rating IPOHE ([16]; 250 g ai/ha) | Pre-emerge herbicidal activity, phytotoxicity rating SORHA ([20]; 250 g ai/ha)
15: Post-emerge Herbicidal Activity RICE ([14]; 250 g ai/ha)
0: Pre-emerge phytotoxicity rating, crop damage CORN ([1]; 63 g ai/ha) | Pre-emerge phytotoxicity rating, crop damage CORN ([1]; 250 g ai/ha) | Post-emerge Herbicidal Activity DIGSA ([6]; 250 g ai/ha) | Post-emerge Herbicidal Activity SORHA ([8]; 63 g ai/ha) | Pre-emerge herbicidal activity, phytotoxicity rating ECHCG ([15]; 63 g ai/ha) | Pre-emerge herbicidal activity, phytotoxicity rating IPOHE ([16]; 63 g ai/ha) | Pre-emerge herbicidal activity, phytotoxicity rating CASOB ([17]; 63 g ai/ha) | Pre-emerge herbicidal activity, phytotoxicity rating ABUTH ([19]; 63 g ai/ha)
100: Post-emerge Herbicidal Activity ABUTH ([7]; 63 g ai/ha) | Post-emerge Herbicidal Activity ABUTH ([7]; 250 g ai/ha) | Pre-emerge herbicidal activity, phytotoxicity rating AMARE ([12]; 63 g ai/ha) | Pre-emerge herbicidal activity, phytotoxicity rating AMARE ([12]; 250 g ai/ha) | Pre-emerge herbicidal activity, phytotoxicity rating DIGSA ([18]; 250 g ai/ha) | Pre-emerge herbicidal activity, phytotoxicity rating ABUTH ([19]; 250 g ai/ha) | Pre-emerge herbicidal activity, phytotoxicity rating CHEAL ([21]; 63 g ai/ha) | Pre-emerge herbicidal activity, phytotoxicity rating CHEAL ([21]; 250 g ai/ha) | Pre-emerge herbicidal activity, phytotoxicity rating SETVI ([22]; 250 g ai/ha)
50: Post-emerge Herbicidal Activity CASOB ([5]; 63 g ai/ha) | Pre-emerge herbicidal activity, phytotoxicity rating DIGSA ([18]; 63 g ai/ha)

CCCCCCOC(=O)C(C)(Cl)Cc1c(OC)c(Cl)cc(F)c1-n1c(=O)cc(C(F)(F)F)n(C)c1=O (stereo not shown) [14-38]
30: Pre-emerge phytotoxicity rating, crop damage RICE ([2]; 250 g ai/ha) | Post-emerge Herbicidal Activity, phytotoxicity rating SORHA ([8]; Rate 250 g ai/ha)
90: Post-emerge Herbicidal Activity, phytotoxicity rating SETVI ([11]; Rate 63 g ai/ha) | Pre-emerge herbicidal activity, phytotoxicity rating DIGSA ([18]; 250 g ai/ha) | Pre-emerge herbicidal activity, phytotoxicity rating CHEAL ([21]; 63 g ai/ha)
99: Pre-emerge herbicidal activity, phytotoxicity rating AMARE ([12]; 63 g ai/ha)
50: Post-emerge phytotoxicity rating CORN (crop damage) ([13]; Rate 63 g ai/ha)
100: Post-emerge Herbicidal Activity, phytotoxicity rating ECHCG ([3]; Rate 63 g ai/ha) | Post-emerge Herbicidal Activity, phytotoxicity rating ECHCG ([3]; Rate 250 g ai/ha) | Post-emerge Herbicidal Activity, phytotoxicity rating DIGSA ([6]; Rate 250 g ai/ha) | Post-emerge Herbicidal Activity, phytotoxicity rating ABUTH ([7]; Rate 63 g ai/ha) | Post-emerge Herbicidal Activity, phytotoxicity rating ABUTH ([7]; Rate 250 g ai/ha) | Post-emerge Herbicidal Activity, phytotoxicity rating CHEAL ([9]; Rate 63 g ai/ha) | Post-emerge Herbicidal Activity, phytotoxicity rating CHEAL ([9]; Rate 250 g ai/ha) | Post-emerge Herbicidal Activity, phytotoxicity rating AMARE ([10]; Rate 63 g ai/ha) | Post-emerge Herbicidal Activity, phytotoxicity rating AMARE ([10]; Rate 250 g ai/ha) | Post-emerge Herbicidal Activity, phytotoxicity rating SETVI ([11]; Rate 250 g ai/ha) | Pre-emerge herbicidal activity, phytotoxicity rating AMARE ([12]; 250 g ai/ha) | Post-emerge phytotoxicity rating CORN (crop damage) ([13]; Rate 250 g ai/ha) | Pre-emerge herbicidal activity, phytotoxicity rating ABUTH ([19]; 250 g ai/ha) | Pre-emerge herbicidal activity, phytotoxicity rating CHEAL ([21]; 250 g ai/ha)
0: Pre-emerge phytotoxicity rating, crop damage CORN ([1]; 63 g ai/ha) | Pre-emerge phytotoxicity rating, crop damage CORN ([1]; 250 g ai/ha) | Pre-emerge phytotoxicity rating, crop damage RICE ([2]; 63 g ai/ha) | Post-emerge Herbicidal Activity, phytotoxicity rating CASOB ([5]; Rate 63 g ai/ha) | Post-emerge Herbicidal Activity, phytotoxicity rating CASOB ([5]; Rate 250 g ai/ha) | Post-emerge Herbicidal Activity, phytotoxicity rating SORHA ([8]; Rate 63 g ai/ha) | Post-emerge phytotoxicity rating RICE (crop damage) ([14]; Rate 63 g ai/ha) | Pre-emerge herbicidal activity, phytotoxicity rating ECHCG ([15]; 63 g ai/ha) | Pre-emerge herbicidal activity, phytotoxicity rating IPOHE ([16]; 63 g ai/ha) | Pre-emerge herbicidal activity, phytotoxicity rating IPOHE ([16]; 250 g ai/ha) | Pre-emerge herbicidal activity, phytotoxicity rating CASOB ([17]; 63 g ai/ha) | Pre-emerge herbicidal activity, phytotoxicity rating CASOB ([17]; 250 g ai/ha) | Pre-emerge herbicidal activity, phytotoxicity rating DIGSA ([18]; 63 g ai/ha) | Pre-emerge herbicidal activity, phytotoxicity rating SORHA ([20]; 63 g ai/ha) | Pre-emerge herbicidal activity, phytotoxicity rating SORHA ([20]; 250 g ai/ha) | Pre-emerge herbicidal activity, phytotoxicity rating SETVI ([22]; 63 g ai/ha)
80: Pre-emerge herbicidal activity, phytotoxicity rating SETVI ([22]; 250 g ai/ha)
95: Post-emerge Herbicidal Activity, phytotoxicity rating DIGSA ([6]; Rate 63 g ai/ha)
40: Post-emerge phytotoxicity rating RICE (crop damage) ([14]; Rate 250 g ai/ha) | Pre-emerge herbicidal activity, phytotoxicity rating ABUTH ([19]; 63 g ai/ha)
70: Post-emerge Herbicidal Activity, phytotoxicity rating IPOHE ([4]; Rate 63 g ai/ha) | Post-emerge Herbicidal Activity, phytotoxicity rating IPOHE ([4]; Rate 250 g ai/ha) | Pre-emerge herbicidal activity, phytotoxicity rating ECHCG ([15]; 250 g ai/ha)
